Article PMC7392018, “A general-purpose Nanohybrid fabricated by Polymeric Au(I)-peptide precursor to wake the function of Peptide Therapeutics” (Theranostics, 2020)

Legend:
In vivo toxicity study = conditions: 2.5 mg/kg every other day for 12 days, HCT116 xenograft mice; PMI-Au SNH intraperitoneally, intravenously or intragastrically
Protocol: To evaluate the toxicity of PMI-Au SNH including the nephrotoxicity in vivo, we carried out a comprehensive toxicity study using the subcutaneous xenograft model of HCT116 tumors from efficacy studies. PMI-Au SNH was intraperitoneally, intravenously or intragastrically injected, every other day for a duration of 12 days, at a dose of 2.5 mg/kg, with saline, ^ctrlPMI-Au SNH and DOX as controls. […] The safety of both PMI-Au SNH and ^ctrlPMI-Au SNH and toxicity of DOX were further confirmed by changes, or lack thereof, in the function of the liver and kidney (Figure 9A-G), in the weight and H&E staining of spleen (Figure 9H-I) and in the number of white blood cells and thrombocytes (Figure S11). Moreover, heart function (Figure S12), the level of red blood cells (Figure S13) and the histological H&E staining of lung (Figure S14) supported the above findings and the conclusion that PMI-Au SNH is sufficiently safe with a significant therapeutic potential. […]
intense staining. […]
To assess potential toxicities of repeatedly infusing PMI-Au SNH, we monitored body weight of all mice over the course of treatment and measured hematological indexes as well as organ function indexes after 13- day treatment. […]

chymotrypsin = assay: Proteolysis resistance to chymotrypsin by HPLC; type: in vitro ADME; conditions: chymotrypsin with 10% serum in PBS, PBS containing 10 mM oxidized glutathione, 0.5 mg/ml chymotrypsin, read-out: t1/2 of proteolysis (converted)
Protocol: Figure 3 The colloidal peptide-auric SNH is stable and proteolytically resistant. (A) The physicochemical properties of the three peptide and the schematic diagram of three peptide-Auric SNH. (B-D) The dimensional change of Pep-AuNPs and Pep-Au SNH with time in PBS (pH7.4) or PBS including 20% FBS and 50 µM GSH to simulate extracellular physiological environment. (E-G) Proteolysis resistance of Pep-SH, Pep-AuNPs and Pep-Au SNH under PBS containing 10 mM oxidized glutathione, 10% serum, and 0.5 mg/ml chymotrypsin.
Linear peptides are conformationally disordered in aqueous solutions under their own steam and, consequently, tendentious to proteolysis. Conjugation of peptides with nanoparticles would improve steric hindrance against peptidase, resulting in the resistance to proteolysis, [44]. We comparatively quantified the susceptibility of Pep-AuNPs and Pep-Au SNH to chymotrypsin using HPLC (Figure 3E-G).
Fi g u re S 9. (A) The dimensional change of PMI- Au SNH with time in PBS or PBS including 20%
FBS and 50μM GSH at pH 7.4 or 4.0 to simulate extracellular physiological environment. ( B)
Proteolysis resistance of Pep-Au SNH under PBS at pH 7.4 or 4.0 containing 10 mM oxidized
glutathione, 10% serum, and 0.5 mg/ml chymotrypsin. (C) ICP- MS quantification of gold content
(from PMI- Au SNH) in stomach, colon and blood collected from health c57/b6 mice. The data […]

SMILES | body weight change (In vivo toxicity study) | half-life (chymotrypsin)
COc1cccc2c1C(=O)c1c(O)c3c(c(O)c1C2=O)C[C@@](O)(C(=O)CO)C[C@@H]3O[C@H]1C[C@H](N)[C@H](O)[C@H](C)O1 [DOX, doxorubicin] | significant loss of body weight | –
CC(=O)N[C@H](C(=O)N[C@@H](CO)C(=O)N[C@@H](Cc1ccccc1)C(=O)N[C@@H](C)C(=O)N[C@@H](CCC(=O)O)C(=O)N[C@@H](Cc1ccc(O)cc1)C(=O)N[C@@H](Cc1c[nH]c2ccccc12)C(=O)N[C@@H](C)C(=O)N[C@@H](CC(C)C)C(=O)N[C@@H](CC(C)C)C(=O)N[C@@H](CO)C(=O)N1CCC[C@H]1C(=O)N[C@@H](CS)C(=O)O)[C@@H](C)O [PMI-SH] | – | 9 ± 0.6 min
